Results from patent US5736376A, “Recombinant endothelin converting enzyme-2 and its use in ECE inhibitor screening” (Board of Regents, The University of Texas System, priority 1995, dated 1998).
“Also recorded” adds a separate entry of the source. Where no end group is shown, it is not given here.

What was measured:
ECE-1 [1] = target: T1, ECE-1 (Bos taurus, UniProt P42891); assay: Protease inhibitor assay of ECE-1, solubilized CHO/ECE-1 membranes, big ET-1 conversion, pH 6.8; assay type: biochemical, bovine; conditions: for Percent ECE-1 activity remaining with inhibitor (of control): Inhibitor 100 μM, solubilized CHO/ECE-1 membranes, control 100; for inhibition of ECE-1: sensitivity to protease inhibitors, Table 2
T1 construct: made in house
T1 sequence (P42891 1-754): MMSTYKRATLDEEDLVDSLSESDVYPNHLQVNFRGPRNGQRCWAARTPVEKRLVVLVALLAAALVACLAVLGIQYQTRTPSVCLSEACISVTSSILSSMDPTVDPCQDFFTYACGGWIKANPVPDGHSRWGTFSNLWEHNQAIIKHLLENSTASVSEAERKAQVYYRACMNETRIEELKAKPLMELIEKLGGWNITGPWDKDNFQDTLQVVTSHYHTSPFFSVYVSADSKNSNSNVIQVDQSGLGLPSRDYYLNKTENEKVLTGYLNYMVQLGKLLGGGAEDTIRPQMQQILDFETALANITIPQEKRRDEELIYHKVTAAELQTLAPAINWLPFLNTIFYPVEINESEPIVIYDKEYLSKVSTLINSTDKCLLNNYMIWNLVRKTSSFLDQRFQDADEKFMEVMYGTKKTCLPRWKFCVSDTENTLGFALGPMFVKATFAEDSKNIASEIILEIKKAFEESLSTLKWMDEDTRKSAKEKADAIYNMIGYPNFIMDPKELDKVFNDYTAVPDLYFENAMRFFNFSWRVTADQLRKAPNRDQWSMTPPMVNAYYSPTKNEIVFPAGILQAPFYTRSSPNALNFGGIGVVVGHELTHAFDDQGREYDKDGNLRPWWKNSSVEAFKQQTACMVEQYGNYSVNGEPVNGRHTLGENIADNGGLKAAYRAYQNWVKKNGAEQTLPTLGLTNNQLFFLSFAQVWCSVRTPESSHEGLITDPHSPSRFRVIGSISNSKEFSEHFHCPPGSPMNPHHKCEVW
Method: Solubilized crude membranes were prepared in parallel from CHO/ECE-2 and CHO/ECE-1 cells as described (Xu et al., 1994). For protease inhibitor studies, membranes were prepared without protease inhibitors. Standard reaction mixtures for the ECE-2 assay (50 μl) contained 0.1M 2-[N-morpholino]ethanesulfonic acid (MES) buffer (pH 5.5), 0.5M NaCl, 0.1 μM human big ET-1 and an enzyme fraction. ECE-1 assay reactions contained 0.1M phosphate buffer (pH 6.8) instead of the MES buffer. For the pH profiling and isopeptide selectivity studies, the buffer solution (0.1M) or the substrate (0.1 μM) was substituted as designated. For the inhibitor studies, the reactions were preincubated at 37° C. with protease inhibitor or vehicle for 15 min. Reactions were started by the addition of substrate, and incubated at 37° C. for 30 min in siliconized 0.5-ml microcentrifuge tubes. […] The mixture was then directly assayed for mature ET-1 as described (Suzuki et al., 1989). Duplicate assay wells were used for each enzyme reaction. […] Protein concentrations were determined by the Bradford method (Bio-Rad) using IgG as standard.

ECE-2 [2] = target: T2, ECE-2 (Bos taurus, UniProt P0DPE2); assay: Protease inhibitor assay of ECE-2, solubilized CHO/ECE-2 membranes, big ET-1 conversion, pH 5.5; assay type: biochemical, bovine; conditions: for Percent of control ECE-2 activity remaining with inhibitor: Inhibitor 100 μM, solubilized CHO/ECE-2 membranes, control 100; for inhibition of ECE-2: in vitro sensitivity to inhibitors
T2 construct: solubilized crude membranes or live cells
Method: Solubilized crude membranes were prepared in parallel from CHO/ECE-2 and CHO/ECE-1 cells as described (Xu et al., 1994). For protease inhibitor studies, membranes were prepared without protease inhibitors. Standard reaction mixtures for the ECE-2 assay (50 μl) contained 0.1M 2-[N-morpholino]ethanesulfonic acid (MES) buffer (pH 5.5), 0.5M NaCl, 0.1 μM human big ET-1 and an enzyme fraction. […] For the inhibitor studies, the reactions were preincubated at 37° C. with protease inhibitor or vehicle for 15 min. Reactions were started by the addition of substrate, and incubated at 37° C. for 30 min in siliconized 0.5-ml microcentrifuge tubes. […] The mixture was then directly assayed for mature ET-1 as described (Suzuki et al., 1989). Duplicate assay wells were used for each enzyme reaction.

ECE-2 [3] = target: T2, ECE-2; assay: Double-transfection live cell assay: mature ET-1 secretion by CHO/ECE-2 cells transfected with preproET-1 cDNA; assay type: cell-based, bovine
Method: Production of mature ET-1 by CHO/ECE-2 cells transiently transfected with preproET-1 cDNA: Cleavage of endogenously produced big ET-1. Doubly transfected cells were cultured for 12 h in the absence or presence of the designated concentrations of ECE inhibitors, and mature ET-1 in the conditioned medium was determined. Negative control studies with parental CHO cells are shown by dashed lines.
CHO/ECE-2 cells and untransfected CHO cells were transiently transfected in parallel with a preproET-1 construct, and mature ET-1 secreted from these cells into the medium was determined by EIA.
CHO-K1 cells were cultured as described (Xu et al., 1994). Since many batches of tissue culture-grade trypsin preparations contained high levels of metalloprotease contaminants with an ECE-like activity, a highly purified crystallized preparation of trypsin (Sigma, Catalog No. T7418) was dissolved in phosphate-buffered saline at 0.013% (w/v) and used for all trypsinization procedures. […] Twelve hours after the transient transfection, cells were refed with fresh medium with or without ECE inhibitors. The medium was conditioned for an additional 12 h and directly subjected to enzyme immunoassay (EIA) for mature ET-1 (Suzuki et al., 1989).

ECE-1 [4] = target: T1, ECE-1; assay: Coculture of CHO/ECE-1 and CHO/preproET-1 cells: cleavage of exogenously supplied big ET-1; assay type: cell-based, bovine
Method: (§1) Production of mature ET-1 by CHO/ECE-1-CHO/preproET-1 and CHO/ECE-2-CHO/preproET-1 cocultures: Cleavage of exogenously supplied big ET-1. […] Negative control experiments were performed by coculturing parental CHO cells with CHO/preproET-1 cells. Open circles, CHO/ET-1+CHO/ECE-1 (Phos); closed circles, CHO/ET-1+CHO/ECE-1 (FR); open squares, CHO/ET-1+CHO/ECE-2 (Phos); closed squares, CHO/ET-1+CHO/ECE-2 (FR); open triangles, CHO/ET-1+CHO-K1 (Phos).
(§2) This was tested by coculturing the stable transfectant CHO/preproET-1 cells with either CHO/ECE-1 or CHO/ECE-2 cells, and determining the amount of mature ET-1 in the medium.

ECE-2 [5] = target: T2, ECE-2; assay: Coculture of CHO/ECE-2 and CHO/preproET-1 cells: cleavage of exogenously supplied big ET-1; assay type: cell-based, bovine; conditions: up to 100 μM
Method: as §1, §2

[6] = Stability of big and mature endothelin isopeptides with crude membrane proteins, ECE-2 assay conditions (pH 5.6); assay type: physicochemical
ECE-1 [7] = target: T1, ECE-1; assay: Substrate kinetics and isopeptide substrate selectivity of ECE-1; assay type: biochemical, bovine; conditions: big ET-1 0.01-10 μM; 20 μg crude membrane proteins, 30 min; read-out: apparent Km of ECE-1
Method: Solubilized crude membranes were prepared in parallel from CHO/ECE-2 and CHO/ECE-1 cells as described (Xu et al., 1994). For protease inhibitor studies, membranes were prepared without protease inhibitors. Standard reaction mixtures for the ECE-2 assay (50 μl) contained 0.1M 2-[N-morpholino]ethanesulfonic acid (MES) buffer (pH 5.5), 0.5M NaCl, 0.1 μM human big ET-1 and an enzyme fraction. ECE-1 assay reactions contained 0.1M phosphate buffer (pH 6.8) instead of the MES buffer. For the pH profiling and isopeptide selectivity studies, the buffer solution (0.1M) or the substrate (0.1 μM) was substituted as designated. For the inhibitor studies, the reactions were preincubated at 37° C. with protease inhibitor or vehicle for 15 min. Reactions were started by the addition of substrate, and incubated at 37° C. for 30 min in siliconized 0.5-ml microcentrifuge tubes. […] The mixture was then directly assayed for mature ET-1 as described (Suzuki et al., 1989). Duplicate assay wells were used for each enzyme reaction. For big ET-2 and big ET-3 conversion assays, mature ET-1 EIA (which fully cross-reacts with mature ET-2) and mature ET-3 EIA were used with human ET-2 and ET-3 as standards, respectively (Matsumoto et al., 1989). Protein concentrations were determined by the Bradford method (Bio-Rad) using IgG as standard.

ECE-2 [8] = target: T2, ECE-2; assay: Substrate kinetics and isopeptide substrate selectivity of ECE-2; assay type: biochemical, bovine
Method: Isopeptide substrate selectivity of ECE-2. Substrates are: closed circles, big ET-1 (1-38); closed squares, big ET-2 (1-38); and closed triangles, big ET-3 (1-41 Amide). Activity is reported as conversion (fmol/30 min) vs μg of membrane protein.
Solubilized crude membranes were prepared in parallel from CHO/ECE-2 and CHO/ECE-1 cells as described (Xu et al., 1994). […] Standard reaction mixtures for the ECE-2 assay (50 μl) contained 0.1M 2-[N-morpholino]ethanesulfonic acid (MES) buffer (pH 5.5), 0.5M NaCl, 0.1 μM human big ET-1 and an enzyme fraction. […] For the pH profiling and isopeptide selectivity studies, the buffer solution (0.1M) or the substrate (0.1 μM) was substituted as designated. […] Reactions were started by the addition of substrate, and incubated at 37° C. for 30 min in siliconized 0.5-ml microcentrifuge tubes. […] The mixture was then directly assayed for mature ET-1 as described (Suzuki et al., 1989). Duplicate assay wells were used for each enzyme reaction. For big ET-2 and big ET-3 conversion assays, mature ET-1 EIA (which fully cross-reacts with mature ET-2) and mature ET-3 EIA were used with human ET-2 and ET-3 as standards, respectively (Matsumoto et al., 1989). Protein concentrations were determined by the Bradford method (Bio-Rad) using IgG as standard.

[9] = cartilage; literature; cited from earlier work
big ET-1 [10] = assay: pH profile of ECE activity; assay type: biochemical, human
Method: FIG. 1B. pH profile of ECE-2. […] Buffers are: open squares, acetate; closed squares, MES; open circles, phosphate; closed circles, Tris; open triangles, glycine.
FIG. 1B is a pH profile of ECE-2. Optimal activity of ECE-2 is at pH 5.5 in contrast to the previously discovered ECE-1, which has optimal activity at pH 6.8. […] In all subsequent studies, ECE-2 assays were performed at pH 5.5. […] A majority of the ECE-2 activity in the CHO/ECE-2 cell homogenates was found in the membrane fraction. No significant ECE-2 activity was detected in the culture supernatants from CHO/ECE-2 cells.
Solubilized crude membranes were prepared in parallel from CHO/ECE-2 and CHO/ECE-1 cells as described (Xu et al., 1994). For protease inhibitor studies, membranes were prepared without protease inhibitors. Standard reaction mixtures for the ECE-2 assay (50 μl) contained 0.1M 2-[N-morpholino]ethanesulfonic acid (MES) buffer (pH 5.5), 0.5M NaCl, 0.1 μM human big ET-1 and an enzyme fraction. ECE-1 assay reactions contained 0.1M phosphate buffer (pH 6.8) instead of the MES buffer. For the pH profiling and isopeptide selectivity studies, the buffer solution (0.1M) or the substrate (0.1 μM) was substituted as designated. […] Protein concentrations were determined by the Bradford method (Bio-Rad) using IgG as standard.

big ET-1 [11] = conditions: cited from earlier work

T2 sequence (P0DPE2 97-883): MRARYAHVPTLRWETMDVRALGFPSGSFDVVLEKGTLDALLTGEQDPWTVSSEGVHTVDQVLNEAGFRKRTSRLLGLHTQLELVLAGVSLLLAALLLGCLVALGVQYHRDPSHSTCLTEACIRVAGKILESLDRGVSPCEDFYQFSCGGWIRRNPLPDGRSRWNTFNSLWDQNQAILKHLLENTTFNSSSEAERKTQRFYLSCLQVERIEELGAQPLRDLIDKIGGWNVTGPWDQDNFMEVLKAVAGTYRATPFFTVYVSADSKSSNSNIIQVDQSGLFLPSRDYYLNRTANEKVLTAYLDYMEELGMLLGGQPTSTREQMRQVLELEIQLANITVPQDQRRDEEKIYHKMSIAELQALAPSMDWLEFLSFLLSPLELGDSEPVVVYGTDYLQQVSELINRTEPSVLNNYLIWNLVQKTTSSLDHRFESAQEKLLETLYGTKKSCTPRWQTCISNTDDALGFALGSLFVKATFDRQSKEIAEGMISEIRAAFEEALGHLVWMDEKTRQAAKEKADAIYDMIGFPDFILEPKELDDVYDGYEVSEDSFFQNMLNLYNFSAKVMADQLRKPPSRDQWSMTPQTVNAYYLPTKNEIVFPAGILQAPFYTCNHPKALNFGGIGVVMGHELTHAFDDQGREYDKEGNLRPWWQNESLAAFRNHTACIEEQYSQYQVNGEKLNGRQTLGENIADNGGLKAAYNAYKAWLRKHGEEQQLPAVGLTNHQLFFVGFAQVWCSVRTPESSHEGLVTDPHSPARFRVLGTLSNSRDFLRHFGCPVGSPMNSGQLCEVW

Molecule: N=C(N)c1ccc(CS(=O)(=O)F)cc1 [APMSF, 4-amidinophenylmethylsulphonyl fluoride]
- Percent ECE-1 activity remaining with inhibitor (of control) (ECE-1 [1]): 107%
- Percent of control ECE-2 activity remaining with inhibitor (ECE-2 [2]): 93%

Molecule: C[C@H](CS)C(=O)N1CCC[C@H]1C(=O)O [Captopril]
- inhibition of ECE-1 (ECE-1 [1]): not inhibited
- inhibition of ECE-2 (ECE-2 [2]): not inhibited

Molecule: COc1c2c(c(O)c3c1C(O)Cc1cc(CC(C)O)c(C(=O)O)c(O)c1-3)C(=O)c1cccc(O)c1C2=O (stereo not drawn) [FR901533, 1,6,9,14-tetrahydroxy-3-(2-hydroxypropyl)-7-methoxy-8,13-dioxo-5,6,8,13-tetrahydro-benzo[α]naphthacene-2-carboxylate .cndot. Na]
- inhibition of conversion in transfected CHO/ECE-2 cells (ECE-2 [3]; added to medium at up to 1 mM): did not appreciably inhibit the conversion
- IC50 (ECE-1 [1]; in vitro, pH 6.8): 2 µM
- inhibition of ECE-1 (ECE-1 [1]): inhibited
- IC50 (ECE-1 [4]): ~1 µM
- inhibition of ECE-2 (ECE-2 [2]): inhibited; also recorded: efficiently inhibits the conversion of big ET-1 by ECE-2 in vitro
- IC50 (ECE-2 [2]; in vitro, pH 5.5): 3 µM
- inhibition of mature peptide production, CHO/ECE-2 coculture (ECE-2 [5]): not inhibited

Molecule: O=C(O)CNC(=O)C(CS)Cc1ccccc1 (stereo not shown) [Thiorphan]
- inhibition of ECE-1 (ECE-1 [1]): not inhibited
- inhibition of ECE-2 (ECE-2 [2]): not inhibited

Molecule: O=S(=O)(O)c1cc[c]([Hg][Cl])cc1 [pCMS, p-chloromercuriphenylsulphonic acid]
- Percent ECE-1 activity remaining with inhibitor (of control) (ECE-1 [1]): 136%
- Percent of control ECE-2 activity remaining with inhibitor (ECE-2 [2]): 345%
- inhibition of ECE-2 (ECE-2 [2]): augmented the activity of ECE-2

Molecule: ET-1: Synthetic human ET-1; 21-amino-acid peptide
- rate of degradation among isopeptides [6]: degraded at similar rates

Molecule: ET-2: Synthetic human ET-2 (CSCSSWLDKECVYFCHLDIIW; ends and bridges not checked; cysteine pairing not given here; UniProt P20800 49-69, looked up)
- rate of degradation among isopeptides [6]: degraded at similar rates

Molecule: ET-3: Synthetic human ET-3
- rate of degradation among isopeptides [6]: degraded at similar rates

Molecule: big ET-1: Synthetic human big ET-1[1-38] (CSCSSLMDKECVYFCHLDIIWVNTPEHVVPYGLGSPRS; ends and bridges not checked; cysteine pairing not given here; UniProt P05305 53-90, looked up)
- Km (ECE-1 [7]): 1 to 2 µM
- relative rate of cleavage by ECE-2 (ECE-2 [8]; 20-40 μg membrane proteins, optimal pH): 100%
- Km (ECE-2 [8]; big ET-1 0.01-10 μM, 20 μg crude membrane proteins, 30 min, read-out: apparent Km of ECE-2): 1 to 2 µM
- rate of degradation among isopeptides [6]: degraded at similar rates

Molecule: matrix metalloproteinase-3: matrix metalloprotease in cartilage, matrix metalloproteinase-3 (MMP-3; stromelysin-1)
- pH optimum [9]: 5.3-5.5

B1: ECE-2: novel membrane-bound metalloprotease; 787-amino-acid polypeptide, SEQ ID NO:2 (protein)
chain: MRARYAHVPTLRWETMDVRALGFPSGSFDVVLEKGTLDALLTGEQDPWTVSSEGVHTVDQVLNEAGFRKRTSRLLGLHTQLELVLAGVSLLLAALLLGCLVALGVQYHRDPSHSTCLTEACIRVAGKILESLDRGVSPCEDFYQFSCGGWIRRNPLPDGRSRWNNSNSLWDQNQAILKHLLENTTFNSSSEAERKTQRFYLSCLQVERIEELGAHALRDLIDKIGGWNVTGPWDQDNFMEVLKAVAGTYRATPFFTVYVSADSKSSNSNIIQVDQSGLFLPSRDYYLNRTANEKVLTAYLDYMEELGMLLGGQPTSTREQMRQVLELEIQLANITVPQDQRRDEEKIYHKMSIAELQALAPSMDWLEFLSFLLSPLELGDSEPVVVYGTDYLQQVSELINRTEPSVLNNYLIWNLVQKTTSSLDHRFESAQEKLLETLYGTKKSCTPRWQTCISNTDDALGFALGSLFVKATFDRQSKEIAEGMISEIRVAFEEALGHLVWMDEKTRQAAKEKADAIYDMIGFPDFILEPKELDDVYDGYEVSEDSFFQNMLNLYNFSAKVMADQLRKPPSRDQWSMTPQTVNAYYLPTKNEIVFPAGILQAPFYTCNHPQALNFGGIGVVMGHELTHAFDDQGREYDKEGNLRPWWQNESLAAFRNHTACIEEQYSQYQVNGEKLNGRQTLGENIADNGGLKAAYNAYKAWLRKHGEEQQLPAVGLTNHQLFFVGFAQVWCSVRTPESSHEGLVTDPHSPARFRVLGTLSNSRDFLRHFGCPVGSPMNSGQLCEVW
- total endothelin peptides converted to mature ET-1 (ECE-2 [3]; double-transfection assays): up to 40%
- pH of optimal activity (big ET-1 [10]; conversion of big ET-1): 5.5
- activity at neutral pH (6.8) (big ET-1 [10]; standard ECE-1 assay): virtually inactive

B2: ECE-1: type II membrane-bound metalloprotease that processed endogenously produced big ET-1 (protein, UniProt P42892 1-770, looked up)
Endothelin-converting enzyme 1: MRGVWPPPVSALLSALGMSTYKRATLDEEDLVDSLSEGDAYPNGLQVNFHSPRSGQRCWAARTQVEKRLVVLVVLLAAGLVACLAALGIQYQTRSPSVCLSEACVSVTSSILSSMDPTVDPCHDFFSYACGGWIKANPVPDGHSRWGTFSNLWEHNQAIIKHLLENSTASVSEAERKAQVYYRACMNETRIEELRAKPLMELIERLGGWNITGPWAKDNFQDTLQVVTAHYRTSPFFSVYVSADSKNSNSNVIQVDQSGLGLPSRDYYLNKTENEKVLTGYLNYMVQLGKLLGGGDEEAIRPQMQQILDFETALANITIPQEKRRDEELIYHKVTAAELQTLAPAINWLPFLNTIFYPVEINESEPIVVYDKEYLEQISTLINTTDRCLLNNYMIWNLVRKTSSFLDQRFQDADEKFMEVMYGTKKTCLPRWKFCVSDTENNLGFALGPMFVKATFAEDSKSIATEIILEIKKAFEESLSTLKWMDEETRKSAKEKADAIYNMIGYPNFIMDPKELDKVFNDYTAVPDLYFENAMRFFNFSWRVTADQLRKAPNRDQWSMTPPMVNAYYSPTKNEIVFPAGILQAPFYTRSSPKALNFGGIGVVVGHELTHAFDDQGREYDKDGNLRPWWKNSSVEAFKRQTECMVEQYSNYSVNGEPVNGRHTLGENIADNGGLKAAYRAYQNWVKKNGAEHSLPTLGLTNNQLFFLGFAQVWCSVRTPESSHEGLITDPHSPSRFRVIGSLSNSKEFSEHFRCPPGSPMNPPHKCEVW
- pH optimum of previously discovered ECE-1 (big ET-1 [11]): 6.8
